US12728119B2, “Pharmaceutical composition for preventing or treating cancer comprising 3-ketoacyl CoA thiolase inhibitor and carnitine acylcarnitine carrier inhibitor” (NATIONAL CANCER CENTER, priority 2020, dated 2026)
Values joined by “and” are separate entries in the source; they are usually repeats but may differ in a detail not shown here. Identical values can stand only once.

Columns and labels:
Format in all cases: cell-based
[1] = tested on: SNU-213 pancreatic cancer cell line; experiment: SRB analysis 1; conditions: % compared to the control group, read-out: degree of growth inhibition
Protocol: (§1) Pancreatic cancer (MIA PaCa2, Capan1, Capan2, BxPC-3, SNU-213 or SNU-324) cell lines (100 μl) were seeded into 96-well microtiter plates at densities ranging from 7,500 to 10,000 cells/well depending on the doubling time of each cell line. After adding Trimetazidine (KN713) 1 mM, omeprazole (KN510) 100 or 200 μM, trimetazidine 1 mM+omeprazole 100 μM, trimetazidine 1 mM+omeprazole 200 μM, respectively, to each well by 100 μl each, and plate was incubated in a CO2 incubator, and cold TCA was added to terminate the assay. 50 μl of cold 50% (w/v) TCA (final concentration: 10% TCA) was gently added to fix the cells and incubated at 4° C. for 60 minutes. The supernatant was discarded and the plate was washed 5 times with tap water and then air dried. A solution of 0.4% (w/v) Sulforhodamine B (100 μl) in 1% acetic acid was added to each well, and the plate was left at room temperature for 10 minutes. After staining, the plates were air dried after washing 5 times with 1% acetic acid to remove unbound dye. The bound dye was then solubilized with 10 mM trizma base and the absorbance was recorded at 515 nm using an automated plate reader.

[2] = tested on: SNU-324 pancreatic cancer cell line; experiment: SRB analysis 1; conditions: % compared to the control group, read-out: degree of growth inhibition
Protocol: as §1

[3] = tested on: Capan2 pancreatic cancer cell line; experiment: SRB analysis 1; conditions: Homo sapiens, % compared to the control group, read-out: degree of growth inhibition
Protocol: as §1

[4] = tested on: BxPC-3 pancreatic cancer cell line; experiment: SRB analysis 1; conditions: Homo sapiens, % compared to the control group, read-out: degree of growth inhibition
Protocol: as §1

[5] = tested on: MIA PaCa2 pancreatic cancer cell line; experiment: SRB analysis 1; conditions: Homo sapiens, % compared to the control group, read-out: degree of growth inhibition
Protocol: as §1

[6] = tested on: Capan1 pancreatic cancer cell line; experiment: SRB analysis 1; conditions: Homo sapiens, % compared to the control group, read-out: degree of growth inhibition
Protocol: as §1

[7] = tested on: MKN45 gastric cancer cell line; experiment: SRB analysis 3; conditions: MKN45, 48 hours
Protocol: (§2) Through SRB analysis (n=3), the effect of triple combination treatment of a CAC inhibitor (KN510: omeprazole), ACAA inhibitor (KN713: trimetazidine) and other anticancer drug on cell growth in the cancer cells was analyzed. (see Table 11).
(§3) The SRB assay was performed as follows: each cell line (100 μl) was seeded into 96-well microtiter plates at densities ranging from 5,000 to 40,000 cells/well depending on the doubling time of each cell line. After 24 hours, drug (100 μl per well) was added to each well and the culture was incubated at 37° C. for 48 hours. Cells were then fixed in 50% TCA (50 μl per well) and plates were incubated at 4° C. for a minimum of 1 hour or a maximum of 3 hours. After that, the liquid was removed from the plate, then rinsed 5 times with water and dried for approximately 12-24 hours at room temperature (RT). After the fixed cells were stained with 0.4% SRB (100 μl per well) for 10 minutes at room temperature, the plates were washed 3 times with 1% glacial acetic acid and dried at room temperature for about 12-24 hours. SRB staining was dissolved in 10 mM Trizma base and absorbance was read at 515 nm. The effect of the drug was expressed as GI50 (50% growth inhibition), TGI (total growth inhibition) or LC50 (lethal concentration). GI50 is the maximum concentration at the moment of 50% inhibition of cell proliferation and IC50 is the concentration of the drug that inhibits the enzyme activity in vitro by 50% in this study.

[8] = tested on: MIA PaCa-2 pancreatic cancer (PDAC) cell line; experiment: SRB analysis 3; conditions: 48 hours
Protocol: as §2, §3

[9] = tested on: AsPC-1 pancreatic cancer (PDAC) cell line; experiment: SRB analysis 3; conditions: 48 hours
Protocol: as §2, §3

[10] = tested on: Huh-7 liver cancer cell line; experiment: SRB analysis 3; conditions: 48 hours
Protocol: as §2, §3

[11] = tested on: HCT-116 colon cancer cell line; experiment: SRB analysis 3; conditions: 48 hours
Protocol: as §2, §3

[12] = tested on: OVCAR-8 ovarian cancer cell line; experiment: SRB analysis 3; conditions: 48 hours
Protocol: as §2, §3

[13] = tested on: H1975 non-small cell lung cancer (NSCLC) cell line; experiment: SRB analysis 3; conditions: 48 hours
Protocol: as §2, §3

[14] = tested on: AGS gastric cancer cell line; experiment: SRB analysis 3; conditions: 48 hours
Protocol: as §2, §3

[15] = tested on: A549 non-small cell lung cancer (NSCLC) cell line; experiment: SRB analysis 3; conditions: 48 hours
Protocol: as §2, §3

[16] = tested on: PC-3 prostate cancer cell line; experiment: SRB analysis 3; conditions: 48 hours
Protocol: as §2, §3

A375 melanoma cell line = experiment: SRB analysis 3; conditions: 48 hours
Protocol: as §2, §3

[17] = tested on: MDA-MB-231 breast cancer cell line; experiment: SRB analysis 3; conditions: 48 hours
Protocol: as §2, §3

[18] = tested on: DU145 prostate cancer cell line; experiment: SRB analysis 3; conditions: 48 hours
Protocol: as §2, §3

[19] = tested on: Caki-1 renal cancer cell line; experiment: SRB analysis 3; conditions: 48 hours
Protocol: as §2, §3

[20] = tested on: COLO-205 colon cancer cell line; experiment: SRB analysis 3; conditions: 48 hours
Protocol: as §2, §3

[21] = tested on: SK-OV-3 ovarian cancer cell line; experiment: SRB analysis 3; conditions: 48 hours
Protocol: as §2, §3

[22] = tested on: UACC62 melanoma cell line; experiment: SRB analysis 3; conditions: 48 hours
Protocol: as §2, §3

[23] = tested on: MCF7 breast cancer cell line; experiment: SRB analysis 3; conditions: 48 hours
Protocol: as §2, §3

[24] = tested on: ACHN renal cancer cell line; experiment: SRB analysis 3; conditions: 48 hours
Protocol: as §2, §3

[25] = tested on: SK-hep-1 liver cancer cell line; experiment: SRB analysis 3; conditions: 48 hours
Protocol: as §2, §3

COc1ccc2[nH]c([S+]([O-])Cc3ncc(C)c(OC)c3C)nc2c1 (stereo not shown) [KN510, omeprazole]
inhibition at 100 µM ([1]; KN510 100 μM): 81%
inhibition at 200 µM ([1]; KN510 200 μM): 89.6%
inhibition at 100 µM ([2]; KN510 100 μM): 68.2%
inhibition at 200 µM ([2]; KN510 200 μM): 89.8%
inhibition at 100 µM ([3]; Capan-2, KN510 100 μM): 1.3%
inhibition at 200 µM ([3]; Capan-2, KN510 200 μM): 49.5%
inhibition at 100 µM ([4]; BX-PC3, KN510 100 μM): 79.5%
inhibition at 200 µM ([4]; BX-PC3, KN510 200 μM): 96.9%
inhibition at 100 µM ([5]; MIA PaCa-2, KN510 100 μM): 70.8%
inhibition at 200 µM ([5]; MIA PaCa-2, KN510 200 μM): 92.8%
cell growth (% of control) at 100 µM ([6]; CAPAN-1, KN510 100 μM): 97.6%
cell growth (% of control) at 200 µM ([6]; CAPAN-1, KN510 200 μM): 111%
cell growth (Control = 100) ([7]; KN510 100 μM): 62.39
cell growth (Control = 100) ([8]; KN510 100 μM): 65.94
cell growth (Control = 100) ([9]; KN510 100 μM): 65.83
cell growth (Control = 100) ([10]; KN510 100 μM): 77.73
cell growth (Control = 100) ([11]; KN510 100 μM): 79.65
cell growth (Control = 100) ([12]; KN510 100 μM): 68.75
cell growth (Control = 100) ([13]; KN510 100 μM): 84.1319
cell growth (Control = 100) ([14]; KN510 100 μM): 65.05
cell growth (Control = 100) ([15]; KN510 100 μM): 55.4 and 30.1
cell growth (Control = 100) ([16]; KN510 100 μM): 59.63
cell growth (Control = 100) (A375 melanoma cell line; KN510 100 μM): 79.18
cell growth (Control = 100) ([17]; KN510 100 μM): 86.99
cell growth (Control = 100) ([18]; KN510 100 μM): 76.71
cell growth (Control = 100) ([19]; KN510 100 μM): 102.1283
cell growth (Control = 100) ([20]; KN510 100 μM): 78.03
cell growth (Control = 100) ([21]; KN510 100 μM): 85.06
cell growth (Control = 100) ([22]; KN510 100 μM): 50.83
cell growth (Control = 100) ([23]; KN510 100 μM): 70.3
cell growth (Control = 100) ([24]; KN510 100 μM): 61.17
cell growth (Control = 100) ([25]; KN510 100 μM): 60.38

COc1ccc(CN2CCNCC2)c(OC)c1OC [KN713, trimetazidine]
inhibition at 1000 µM ([1]; KN713 1 mM): 48.1%
inhibition at 1000 µM ([2]; KN713 1 mM): -3.16%
inhibition at 1000 µM ([3]; Capan-2, KN713 1 mM): -22.2%
inhibition at 1000 µM ([4]; BX-PC3, KN713 1 mM): 12.3%
inhibition at 1000 µM ([5]; MIA PaCa-2, KN713 1 mM): 30.2%
cell growth (% of control) at 1000 µM ([6]; CAPAN-1, KN713 1 mM): 31.2%
cell growth (Control = 100) ([7]; KN713 2.5 mM): 72.85
cell growth (Control = 100) ([8]; KN713 2.5 mM): 39.45
cell growth (Control = 100) ([9]; KN713 2.5 mM): 58.71
cell growth (Control = 100) ([10]; KN713 2.5 mM): 52.09
cell growth (Control = 100) ([11]; KN713 2.5 mM): 36.64
cell growth (Control = 100) ([12]; KN713 2.5 mM): 72.86
cell growth (Control = 100) ([13]; KN713 2.5 mM): 62.58
cell growth (Control = 100) ([14]; KN713 2.5 mM): 60.34
cell growth (Control = 100) ([15]; KN713 2.5 mM): 68.8 and 79.2
cell growth (Control = 100) ([16]; KN713 2.5 mM): 45.06
cell growth (Control = 100) (A375 melanoma cell line; KN713 2.5 mM): 70.33
cell growth (Control = 100) ([17]; KN713 2.5 mM): 74.5469
cell growth (Control = 100) ([18]; KN713 2.5 mM): 55.68
cell growth (Control = 100) ([19]; KN713 2.5 mM): 47.58
cell growth (Control = 100) ([20]; KN713 2.5 mM): 31.62
cell growth (Control = 100) ([21]; KN713 2.5 mM): 83.37
cell growth (Control = 100) ([22]; KN713 2.5 mM): 54.65
cell growth (Control = 100) ([23]; KN713 2.5 mM): 60.36
cell growth (Control = 100) ([24]; KN713 2.5 mM): 65.67
cell growth (Control = 100) ([25]; KN713 2.5 mM): 157.7818
